This is an account of results in patent US5837687A, “Azapeptide derivative” (Fujirebio Inc., priority 1994, dated 1998).

Test [1] deals with T1, NKA receptor (Mesocricetus auratus, UniProt P51144).
T1 construct: from tissue; host or cells: hamster respiratory tract (trachea) ring specimens
T1 sequence (P51144 1-384): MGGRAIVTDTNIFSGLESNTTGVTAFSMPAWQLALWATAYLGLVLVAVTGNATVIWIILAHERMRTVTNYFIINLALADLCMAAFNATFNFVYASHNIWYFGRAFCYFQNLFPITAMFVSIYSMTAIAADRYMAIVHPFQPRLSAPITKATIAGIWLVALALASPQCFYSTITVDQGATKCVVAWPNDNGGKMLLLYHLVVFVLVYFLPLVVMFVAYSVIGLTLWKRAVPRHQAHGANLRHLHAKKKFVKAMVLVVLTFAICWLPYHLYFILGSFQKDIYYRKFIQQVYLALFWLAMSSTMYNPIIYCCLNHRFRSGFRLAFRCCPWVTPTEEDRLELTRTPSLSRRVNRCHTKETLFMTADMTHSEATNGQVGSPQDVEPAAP
Put plainly: Activity to constriction of hamster respiratory tracts caused by NKA (isolated tissue, tension). The class given is cell-based. How it is done: The activity of the azapeptide derivative of the present invention to a NKA receptor was evaluated by the following method.
(1) Activity to constriction of hamster respiratory tracts caused by NKA
Respiratory tracts were taken out from male Syrian strain Golden hamsters having a body weight of 100 to 180 g, and cyclic specimens having a width of 3 to 6 mm were prepared. The specimens were incubated at 37° C. and suspended by loading a static tension of 0.5 g, in a reaction tank charged with 15 ml of a Tyrode solution (137 mM of NaCl, 2.7 mM of KCl, 1.8 mM of CaCl2, 1.02 mM of MgCl2, 11.9 mM of NaHCO3, 0.42 mM of NaH2 PO4 and 5.5 mM of glucose) in which 95% O2 -5% CO2 had been passed.
The compound to be tested was charged into the reaction tank and maintained for 5 minutes. 1×10^-7 M of NKA was charged into the reaction tank, and tension caused thereby was recorded. The examined effect of the tested compound as an antagonist was shown by IC50.

Test [2] concerns the target T2, NKA receptor (Cavia porcellus, UniProt Q64077).
T2 construct: Male Hartley strain guinea pigs having a body weight of 350 to 500 g were anesthetized; from tissue; host or cells: whole anaesthetized guinea pig (airways, in vivo)
T2 sequence (Q64077 1-402): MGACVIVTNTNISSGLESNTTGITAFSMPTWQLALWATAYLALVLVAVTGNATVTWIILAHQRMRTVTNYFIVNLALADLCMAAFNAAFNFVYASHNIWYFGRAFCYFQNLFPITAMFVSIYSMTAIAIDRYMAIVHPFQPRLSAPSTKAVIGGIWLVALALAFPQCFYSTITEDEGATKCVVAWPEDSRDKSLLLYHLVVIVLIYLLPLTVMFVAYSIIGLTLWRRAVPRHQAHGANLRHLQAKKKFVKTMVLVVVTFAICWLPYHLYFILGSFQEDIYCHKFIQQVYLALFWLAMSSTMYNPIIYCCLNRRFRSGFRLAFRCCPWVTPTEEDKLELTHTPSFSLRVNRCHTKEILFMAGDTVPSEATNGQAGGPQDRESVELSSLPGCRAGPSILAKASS
In words: Activity to constriction of guinea pig respiratory tracts caused by NKA (in vivo, excess air amount). To be noted: anesthetized guinea pigs, cervical vein; for Controlling rate (%) 1 min: 2 nmol/kg NKA given 1 min after test compound; for Controlling rate (%) 15 min: 2 nmol/kg NKA given 15 min after test compound. The procedure: (2) Activity to constriction of guinea pig respiratory tracts caused by NKA
Male Hartley strain guinea pigs having a body weight of 350 to 500 g were anesthetized by administering 1.5 g/kg of urethane into abdominal cavities thereof. Cannulas made of polyethylene were inserted into cervical veins and respiratory tracts. From the cervical vein cannulas, 1 mg of gallamine was administered to stop respiration. The respiratory tract cannulas were connected to a respirator, and artificial respiration was carried out with an air-supplying amount at one time of 4 to 6 ml and an air-supplying frequency of 70 times/min. Side branches of the respiratory tract cannulas were introduced into a water tank, and a hydraulic pressure of 8 cm H2 O was loaded. Excess air amounts exceeding the above hydraulic pressure and discharged were measured. From the cervical vein cannulas, 2 nmol/kg of NKA was administered, each compound to be tested was administered after 15 minutes, and further 2 nmol/kg of NKA was administered after 1, 15, 30, 45 and 60 minutes, respectively. The increased amounts of excess air after the respective NKA administrations were measured, and percentages relative to the increased amounts of excess air when the respiratory tracts were completely closed were determined, which were defined as respiratory constriction rates. The decreased ratios of the respiratory constriction rates after administering the compounds to be tested to the respiratory constriction rates before administering the compounds to be tested were shown by percentages, which were defined as controlling rates. The controlling rates were regarded as an effect of the compound to be tested as an antagonist.

[3] abbreviates: mole concentration giving 50% control of tension caused by 1×10^-7 M NKA, compound maintained 5 minutes, hamster respiratory tract specimens, read-out: IC50.

Where two headings read alike, the source gives them in different places. Peptide text beside a SMILES is read from it. * marks the point of attachment. Boc = CC(C)(C)OC(=O)*; OBn = c1ccc(CO*)cc1

In the case of “Ac-LDQWFG-NH2 [Reference example 13, Ac-Leu-Asp-Gln-Trp-Phe-Gly-NH2, reference compound]”, at NKA receptor [1] (setting [3]), the IC50 amounted to 22 nM. Besides, at NKA receptor [2], the “Controlling rate (%) 1 min” value was 11.9% and the “Controlling rate (%) 15 min” value was 3.9%. Molecule `NC(=O)C[C@H](NC(=O)OCc1ccccc1)C(=O)N[C@@H](Cc1c[nH]c2ccccc12)C(=O)NN(Cc1ccccc1)C(=O)NCCOCc1ccccc1` [Example 12, Z-Asn-Trp-AzPhe-NH(CH2)2 OCH2 Ph] yielded an IC50 against NKA receptor [1] of 4.5 nM. Moreover, on NKA receptor [2], the “Controlling rate (%) 1 min” value amounted to 19.5% and the “Controlling rate (%) 15 min” value stood at 73.2%. Besides, the “Controlling rate (%) 30 min” value at NKA receptor [2] (2 nmol/kg NKA given 30 min after test compound) stood at 62.2%. Besides, the “Controlling rate (%) 45 min” value at NKA receptor [2] (2 nmol/kg NKA given 45 min after test compound) came to 54.8%. At NKA receptor [2] (2 nmol/kg NKA given 60 min after test compound), the “Controlling rate (%) 60 min” value turned out to be 51.7%. In turn, `CC(C)(C)OC(=O)N[C@@H](CCCN)C(=O)N[C@@H](Cc1c[nH]c2ccccc12)C(=O)NN(Cc1ccccc1)C(=O)NCCOCc1ccccc1` [Example 13 (2), Boc-Orn-Trp-AzPhe-NH(CH2)2 OCH2 Ph] returned an IC50 against NKA receptor [1] of 78 nM. The same measure, in the same setting: to `CC(C)(C)OC(=O)N[C@@H](CC(=O)OCc1ccccc1)C(=O)N[C@@H](CCC(N)=O)C(=O)N[C@@H](Cc1c[nH]c2ccccc12)C(=O)NN(Cc1ccccc1)C(=O)Nc1ccccc1` [Example 29 (3, Boc-Asp(OBzl)-Gln-Trp-AzPhe-NHPh] belongs 190 nM. Still for that read-out and setting: to `CC(C)(C)NC(=O)N[C@@H](CCC(N)=O)C(=O)N[C@@H](Cc1c[nH]c2ccccc12)C(=O)NN(Cc1ccccc1)C(=O)NCCOCc1ccccc1` [Example 6, t-Bu-NHCO-Gln-Trp-AzPhe-NH(CH2)2 OCH2 Ph] belongs 0.6 nM.

On to `NC(=O)CC[C@H](NC(=O)c1ccccc1)C(=O)N[C@@H](Cc1c[nH]c2ccccc12)C(=O)NN(Cc1ccccc1)C(=O)NCCOCc1ccccc1` [Example 4, Bz-Gln-Trp-AzPhe-NH(CH2)2 OCH2 Ph], for which, on NKA receptor [1], half-maximal inhibition (IC50) was put at 2.3 nM. On the same count and under the same terms, then `CC(C)(C)OC(=O)N[C@@H](CC(N)=O)C(=O)N[C@@H](Cc1c[nH]c2ccccc12)C(=O)NN(Cc1ccccc1)C(=O)NCCOCc1ccccc1` [Example 10, Boc-Asn-Trp-AzPhe-NH(CH2)2 OCH2 Ph], with 6.8 nM. For `CC(C)(C)OC(=O)N[C@@H](CC(=O)OCc1ccccc1)C(=O)N[C@@H](CCC(N)=O)C(=O)N[C@@H](Cc1c[nH]c2ccccc12)C(=O)N[C@@H](Cc1ccccc1)C(N)=O` [Reference example 14, Boc-Asp(OBzl)-Gln-Trp-Phe-NH2, reference compound] (Boc-D(OBn)QWF-NH2), the 50% inhibitory concentration (IC50) on NKA receptor [1] (setting [3]) was found to be 330 nM. `CC(C)(C)OC(=O)N[C@@H](CCC(N)=O)C(=O)N[C@@H](Cc1c[nH]c2ccccc12)C(=O)NN(Cc1ccccc1)C(=O)NCCOCc1ccccc1` [Example 2 (2), Boc-Gln-Trp-AzPhe-NH(CH2)2 OCH2 Ph]: the IC50 on NKA receptor [1] worked out at 0.66 nM.

`CSCC[C@H](NC(=O)OC(C)(C)C)C(=O)N[C@@H](Cc1c[nH]c2ccccc12)C(=O)NN(Cc1ccccc1)C(=O)NCCOCc1ccccc1` [Example 11, Boc-Met-Trp-AzPhe-NH(CH2)2 OCH2 Ph] came in with an IC50 against NKA receptor [1] of 8.9 nM. Regarding `CC(C)(C)OC(=O)N[C@@H](CC(=O)OCc1ccccc1)C(=O)N[C@@H](CCC(N)=O)C(=O)N[C@@H](Cc1c[nH]c2ccccc12)C(=O)NN(Cc1ccccc1)C(=O)NCc1ccc(F)cc1` [Example 17 (3), Boc-Asp(OBzl)-Gln-Trp-AzPhe-NHCH2 Ph(4-F)], it took 4.2 nM to reach half-maximal inhibition on NKA receptor [1] (IC50).

By IC50 is commonly meant the concentration that inhibits the measured activity by half.
